# Experimental data taken from patent publication US10758519B2, “UCP-1 expression promoter” (Kao Corporation, priority 2014, dated 2020).
# Marks after values point to notes of the source that are not given here.
# Key:
# [1] = Blood (serum) analysis, Example B6; type: in vivo, mouse; settings: 14th day after operation, high-fat diet
# Experimental: Each C57BL/6J (SLC, male, 7 weeks old) was allowed to freely eat High-Fat Diets with 60 cal % Fat (Research Diets, Inc.) and freely drink tap water. The body weight was measured every week. After 10 weeks, the mice were divided into 4 groups such that the average body weight was equivalent among the groups (n=8). The breeding environment was set to room temperature of 23±2° C., a humidity of 55±10%, and a light period of 7 a.m. to 7 p.m.
# A 1/13 diluted solution of Somnopentyl was intraperitoneally administered at 10 mL/kg body weight, and then, an analgesic pentazocine was subcutaneously injected at 1 mg/kg body weight. After shaving of the back, an osmotic pump Alzet (DURECT Corp.) filled with the agents given below was implanted to thereby continuously administer the agents.
# Group 2: PPARγ activator (rosiglitazone (Rosi); 5 mg/kg body weight/day)+Smad3 inhibitor (SIS3; 5 mg/kg body weight/day)
# Group 3; β3 adrenaline receptor activator (CL316,243; 0.1 mg/kg body weight/day)
# Group 4; PPARγ activator (rosiglitazone (Rosi); 5 mg/kg body weight/day)+Smad3 inhibitor (SIS3; 5 mg/kg body weight/day)+β3 adrenaline receptor activator (CL316,243; 0.1 mg/kg body weight/day)
# Anatomy was performed on the 14th day after the operation. Blood was collected from the abdominal vena cava under isoflurane anesthesia. Then, each tissue shown below was collected and the weight of the tissue was measured. The significant difference was tested using a multiple comparison test by the Turkey-Kramer method (different letters indicate significant difference with P<0.05).
# Serum from the blood obtained by the anatomy described above was subjected to componential analysis using commercially available measurement kits described below.
# Adiponectin: adiponectin ELISA kit (Otsuka Pharmaceutical Co., Ltd.)
# Insulin: insulin measurement kit (Morinaga Institute of Biological Science, Inc.)
# Glucose: N-Assay Glu-UL (Nittobo Medical Co., Ltd.)
# Total cholesterol: N-Assay L T-CHO-H (Nittobo Medical Co., Ltd.)
# Triglyceride: N-Assay TG-H (Nittobo Medical Co., Ltd.)
# NEFA: NEFA-HA Test Wako (Wako Pure Chemical Industries, Ltd.)
# [2] = test system: UCP-1; experiment: UCP-1 expression-inducing action in rat preadipocytes (quantitative PCR), Example B1; type: cell-based
# Experimental: The abdominal subcutaneous fat tissues of a Wistar-rat (male, 8 weeks old) were chopped with a surgical knife in a collagenase buffer (0.05% collagenase+4% BSA in Hank's buffer), and then, the chopped tissues were incubated at 37° C. for 15 minutes while shaken. After addition of an appropriate amount of a medium (high glucose DMEM (Invitrogen Corp.)+10% fetal, bovine serum (FBS) (AusGeneX PTY LTD.)+100 units/mL penicillin+[…] streptomycin (Invitrogen Corp.)), the obtained cell suspension was centrifuged at 1,000 rpm for 5 minutes. The supernatant was removed to obtain pellets (SVF: stromal vascular fraction). The SVF was suspended in a DMEM (+10% FBS+penicillin+streptomycin) medium, inoculated to a T-175 flask, cultured for 4 days, and used as preadipocytes.
# The preadipocytes were inoculated to a 12-well plate coated with type I collagen. On the next day, the PPARγ activator (rosiglitazone (Rosi) (Wako Pure Chemical Industries, Ltd.), final concentration: 1 μM) and/or the Smad3 inhibitor (SIS3 (Sigma-Aldrich Corp.), final concentration: 10 μM) was added thereto. After culture for 7 days, the β3 adrenaline receptor activator (norepinephrine (NE) (Wako Pure Chemical Industries, Ltd.), final concentration: 1 μM)) was added thereto, and the cells were cultured for 2 hours, then washed with PBS, and recovered.
# Total RNA was extracted according to a standard method using RNeasy Mini Kit (Qiagen N.V.). The total RNA was reverse-transcribed according to a standard method using High Capacity RNA-to-cDNA Kit (Applied Biosystems by Life Technologies).
# Quantitative PCR was performed with the obtained cDNA (30 ng/well) as a template using 7500 Fast Real-Time PCR System (Applied Biosystems by Life Technologies). The expression level of each gene was corrected with a 36B4 gene expression level as an internal standard. Control excluded the agents described above.
# (§1) The preadipocytes (n=3) obtained as described above were inoculated to a 12-well plate coated with type I collagen. On the next day, the PPARγ activator (rosiglitazone (Rosi) (Wako Pure Chemical Industries, Ltd.) or pioglitazone (Wako Pure Chemical Industries, Ltd.); 1 μM) and the Smad3 inhibitor (SIS3 (Sigma-Aldrich Corp.), 10 μM) were added thereto. After culture for 7 days, the cells were treated with the β3 adrenaline receptor activator (norepinephrine (Wako Pure Chemical Industries, Ltd.), 1 μM) for 2 hours and then recovered.
# The preadipocytes were collected by trypsin treatment and transfected with siRNA against each Smad by electroporation using Neon transfection System. (Invitrogen Corp.). The preadipocytes (3×10^5 cells) were transfected with 50 pmol of the siRNA (Life Technologies) under conditions of 1150 V/20 ms/3 pulses, suspended in a DMEM (+10% FBS+100 units/mL penicillin+[…] streptomycin) medium, and then inoculated to a 12-well plate coated with type I collagen. After 6 hours, rosiglitazone was added thereto, and the cells were cultured with the medium replaced with fresh one every day. Four days after the inoculation, the cells were treated with norepinephrine for 2 hours and then recovered, and the UCP-1 expression level was analyzed by using RT-PCR. For a control, rosiglitazone, SIS3, and norepinephrine were added in the same approach as above to cells transfected with random siRNA, followed by analysis.
# as §1, with “Ltd.), 10” for “Ltd.) or pioglitazone (Wako Pure Chemical Industries, Ltd.); 1”, “Corp.) or SB431542 (Sigma-Aldrich Corp.);” for “Corp.),”
# The preadipocytes (n=3) were inoculated to a 12-well plate coated with type I collagen. […]
# [3] = target: T1, human TGR5 (Homo sapiens, UniProt Q8TDU6); experiment: TGR5-activating action, CRE luciferase reporter in HEK293 cells, Reference Example 3; type: cell-based; settings: material 0.001%, 12 to 18 hours; relative to control defined as 1; FIG. 22
# T1 construct: expressed in transfected cells; host or cells: HEK293
# T1 sequence (Q8TDU6 1-330): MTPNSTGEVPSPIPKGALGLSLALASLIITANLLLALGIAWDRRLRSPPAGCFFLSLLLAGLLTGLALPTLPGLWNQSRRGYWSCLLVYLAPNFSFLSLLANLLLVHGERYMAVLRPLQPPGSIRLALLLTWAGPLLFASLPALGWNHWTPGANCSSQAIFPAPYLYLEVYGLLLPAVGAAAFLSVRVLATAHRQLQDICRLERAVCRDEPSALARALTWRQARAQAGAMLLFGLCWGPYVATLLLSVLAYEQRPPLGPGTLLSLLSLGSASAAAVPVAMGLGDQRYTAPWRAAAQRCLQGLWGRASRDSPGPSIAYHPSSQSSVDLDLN
# Experimental: HEK293 cells were inoculated at 1.0×10^5 cells/well to a 24-well plate and cultured in a DMEM medium containing 5% charcoal-treated FBS for 1 day. Then, the cells were transfected with 200 ng/well of a firefly luciferase reporter vector pGL4.29[luc2P/CRE/Hygro](Promega Corp.) containing a cAMP-responsive element (CRE), 40 ng/well of a human TGR5 expression vector hTGR5 (pcDNA3.1+), and 80 ng/well of phRL-TK (Renilla luciferase vector for gene, transfection efficiency correction) using Superfect transfection reagent (Qiagen N.V.). After 3 hours, the medium was replaced with a DMEM medium containing 5% charcoal-treated […]. After another 4 hours, each material shown in Table 4 below was added thereto at a final concentration of 0.001%. 12 to 18 hours thereafter, the luciferase activities were measured using DualGlo luciferase assay system (Promega Corp.). The TGR5-activating action was evaluated by correcting the firefly luciferase activity with the Renilla luciferase activity. The TGR5-activating action was indicated by relative values to the TGR5 activity in a control defined as 1.
# [4] = test system: Smad3; experiment: TGF-β stimulation-responsive Smad3 phosphorylation in HEK293 cells (Western blotting), Reference Example 1; type: cell-based; settings: material 0.002% (luteolin 2 μM) or 0.01% (luteolin 10 μM), 2 hours, then 0.03 μg/mL TGF-β 20 minutes, FIG. 20
# Experimental: HEK293 cells were inoculated at 3×10^5 cells/well to a 6-well dish and cultured overnight in DMEM containing 5% charcoal-treated FBS. On the next day, the medium was replaced with serum-free DMEM supplemented with each material shown in Table 2 below at a final concentration of 0.002% (luteolin: 2 μM) (low-concentration sample) or a final concentration of 0.01% (luteolin: 10 μM) (high-concentration sample). After 2 hours, 0.03 μg/mL TGF-β was added to each well, and the cells were incubated for 20 minutes. After removal of the medium, the resulting cells were washed with PBS and then recovered. The recovered cells were added with Lysis buffer and well homogenized. The cells were left to stand for 15 minutes on ice and then ultrasonically disrupted, and a supernatant centrifuged at 12,000 rpm at 4° C. for 10 minutes was obtained as a protein solution. A prepared sample containing […] of the protein and a ¼ volume of 4×SDS Sample buffer (Novagen) per lane was thermally denatured at 95° C. for 5 minutes and then used in SDS-PAGE. The protein was transferred to Immun-Blot™ PVDF Membrane (Bio-Red Laboratories, Inc.) and subjected to blocking and antibody reaction by the procedures given below, and α-Tubulin and Smad3 were detected together using ECL prime western blotting detection system (Amersham plc). […]
# [5] = Smad3 inhibitor 10 μM with rosiglitazone 10 μM (7 days) and norepinephrine 1 μM (2 hours), FIG. 8
# [6] = β3 adrenaline receptor activator 1 μM for 2 hours added to rosiglitazone 1 μM and SIS3 10 μM (7 days), FIG. 9
# [7] = PPARγ activator 1 μM added to SIS3 10 μM (7 days) and norepinephrine 1 μM (2 hours), FIG. 6
structure (smiles),measurement,setting,value
"C[C@H](Cc1ccc2c(c1)OC(C(=O)[O-])(C(=O)[O-])O2)NC[C@H](O)c1cccc(Cl)c1.[Na+].[Na+] [CL316,243]",Glucose,[1],274.9 ± 19.6^a mg/dl
same,Insunlin,[1],3.05 ± 0.30^ab ng/ml
same,NEFA,[1],0.92 ± 0.09^a mEq/l
same,Total cholesterol,[1],151.1 ± 4.8^ac mg/dl
same,Triglyceride,[1],77.2 ± 7.8^ab mg/dl
same,Adiponectin,"[1]; Rosi 5, SIS3 5, CL316,243 0.1 mg/kg body weight/day",36.9 ± 6.9^ab μg/ml
NC(=O)c1ccc(-c2nc(-c3ccc4c(c3)OCO4)c(-c3ccccn3)[nH]2)cc1 [SB431542],expression level of UCP-1,[2]; [5],synergistically increased
"COc1cc2c(cc1OC)CN(C(=O)/C=C/c1c(-c3ccccc3)n(C)c3ncccc13)CC2 [SIS3, 6,7-dimethoxy-2-((2E)-3-(1-methyl-2-phenyl-1H-pyrrolo[2,3-b]pyridin-3-yl-prop-2-enoyl))-1,2,3,4-tetrahydroisoquinoline]",expression level of UCP-1,[2]; [5],synergistically increased
C[C@H](CCC(=O)O)[C@H]1CC[C@H]2[C@@H]3[C@H](O)C[C@@H]4C[C@H](O)CC[C@]4(C)[C@H]3C[C@H](O)[C@]12C [cholic acid],TGR5-activating action,[3],confirmed to have a TGR5-activating action
CCCCC[C@H](O)CC(=O)CCc1ccc(O)c(OC)c1 [gingerol],TGR5-activating action,[3],confirmed to have a TGR5-activating action
O=c1cc(-c2ccc(O)c(O)c2)oc2cc(O)cc(O)c12 [luteolin],TGF-β stimulation-responsive Smad3 hyperphosphorylation (Smad3-inhibiting action),[4],confirmed to have a Smad3-inhibiting action
Nc1nc(CC(=O)Nc2ccc(CCNC[C@H](O)c3ccccc3)cc2)cs1 [mirabegron],expression level of UCP-1,[2]; [6],synergistically increased
NC[C@H](O)c1ccc(O)c(O)c1 [norepinephrine],expression level of UCP-1,[2]; [6],synergistically increased
CCc1ccc(CCOc2ccc(CC3SC(=O)NC3=O)cc2)nc1 (stereo not drawn) [pioglitazone],expression level of UCP-1,[2]; [7],synergistically increased
CN(CCOc1ccc(CC2SC(=O)NC2=O)cc1)c1ccccn1 (stereo not drawn) [rosiglitazone],expression level of UCP-1,[2]; [7],synergistically increased
